Results reported in patent US8507251B2, “Medium and method for culturing Mycobacterium avium subspecies paratuberculosis” (priority 2009, dated 2013).
Like-named read-outs stand apart in the source and are kept apart here.

How the values were obtained:
M. avium ATCC 25291 = experiment: radiometric 14CO2 BACTEC 460 growth culture, M. avium 25291; assay type: cell-based, M. avium subspecies avium; conditions: for effect on growth (in words): at the doses tested
M. avium 101 = experiment: radiometric 14CO2 BACTEC 460 growth culture, M. avium 101; assay type: cell-based, M. avium subspecies avium; conditions: for effect on growth (in words): at the doses tested
MAP ATCC 19698 = experiment: radiometric 14CO2 BACTEC 460 growth culture, MAP 19698; assay type: cell-based, Mycobacterium avium subspecies paratuberculosis; conditions: for effect on growth (in words): at the doses tested
[1] = tested on: MAP strain Dominic (ATCC 43545); experiment: radiometric 14CO2 BACTEC 460 growth culture, MAP Dominic; assay type: cell-based, Mycobacterium avium subspecies paratuberculosis; conditions: for effect on growth (in words): at the doses tested
[2] = tested on: Bacillus Callmette Guerin (BCG) M. bovis Karlson & Lessel (ATCC 19015); assay type: cell-based
MAP 303 = experiment: radiometric 14CO2 BACTEC 460 growth culture, MAP 303; assay type: cell-based, Mycobacterium avium subspecies paratuberculosis; conditions: for effect on growth (in words): at the doses tested
[3] = tested on: avirulent M. tb strain ATCC 25177; assay type: cell-based, M. tuberculosis
MAP strain UCF-4 = experiment: radiometric 14CO2 BACTEC 460 growth culture, MAP UCF-4; assay type: cell-based, Mycobacterium avium subspecies paratuberculosis; conditions: for effect on growth (in words): at the doses tested
[4] = 1 μg/ml, first of the two values (two experiments)
[5] = 1 μg/ml, second of the two values (two experiments)
[6] = 4 μg/ml, first of the two values (two experiments)
[7] = 4 μg/ml, second of the two values (two experiments)
[8] = 16 μg/ml, first of the two values (two experiments)
[9] = 16 μg/ml, second of the two values (two experiments)
[10] = 64 μg/ml, first of the two values (two experiments)
[11] = 64 μg/ml, second of the two values (two experiments)

NNC(=O)c1ccncc1 [INH, Isoniazid, reference compound]
percent change from control cGI (% ΔcGI / % −ΔcGI) (M. avium ATCC 25291; 1 μg/ml): 176% | percent change from control cGI (% ΔcGI / % −ΔcGI) (M. avium ATCC 25291; 4 μg/ml): 89% | percent change from control cGI (% ΔcGI / % −ΔcGI) (M. avium ATCC 25291; 16 μg/ml): 189% | percent change from control cGI (% ΔcGI / % −ΔcGI) (M. avium ATCC 25291; 64 μg/ml): −90% | percent change from control cGI (% ΔcGI / % −ΔcGI) (M. avium 101; 1 μg/ml): −48% | percent change from control cGI (% ΔcGI / % −ΔcGI) (M. avium 101; 4 μg/ml): −96% | percent change from control cGI (% ΔcGI / % −ΔcGI) (M. avium 101; 16 μg/ml): −95% | percent change from control cGI (% ΔcGI / % −ΔcGI) (M. avium 101; 64 μg/ml): −97% | percent decrease from control cGI (%−ΔcGI) (M. avium 101; 64 μg/ml, value is a decrease): ≥ 97% | percent change from control cGI (% ΔcGI / % −ΔcGI) (MAP ATCC 19698; 1 μg/ml): −20% | percent change from control cGI (% ΔcGI / % −ΔcGI) (MAP ATCC 19698; 4 μg/ml): −14% | percent change from control cGI (% ΔcGI / % −ΔcGI) (MAP ATCC 19698; 16 μg/ml): −17% | percent change from control cGI (% ΔcGI / % −ΔcGI) (MAP ATCC 19698; 64 μg/ml): −63% | effect on growth (in words) (MAP ATCC 19698): no dose-dependent inhibition | percent change from control cGI (% ΔcGI / % −ΔcGI) [1, 4]: 18% | percent change from control cGI (% ΔcGI / % −ΔcGI) [1, 5]: 11% | percent change from control cGI (% ΔcGI / % −ΔcGI) [1, 6]: 9% | percent change from control cGI (% ΔcGI / % −ΔcGI) [1, 7]: 29% | percent change from control cGI (% ΔcGI / % −ΔcGI) [1, 8]: −4% | percent change from control cGI (% ΔcGI / % −ΔcGI) [1, 9]: 9% | percent change from control cGI (% ΔcGI / % −ΔcGI) [1, 10]: −65% | percent change from control cGI (% ΔcGI / % −ΔcGI) [1, 11]: −52% | effect on growth (in words) [1]: no dose-dependent inhibition | percent decrease from control cGI (%−ΔcGI) [2]: ≥ 97% | percent change from control cGI (% ΔcGI / % −ΔcGI) (MAP 303; 1 μg/ml): −18% | percent change from control cGI (% ΔcGI / % −ΔcGI) (MAP 303; 4 μg/ml): −6% | percent change from control cGI (% ΔcGI / % −ΔcGI) (MAP 303; 16 μg/ml): −12% | percent change from control cGI (% ΔcGI / % −ΔcGI) (MAP 303; 64 μg/ml): −52% | effect on growth (in words) (MAP 303): no dose-dependent inhibition | percent change from control cGI (% ΔcGI / % −ΔcGI) ([3]; 1 μg/ml): −97% | percent decrease from control cGI (%−ΔcGI) ([3]; 1 μg/ml): 97% | percent change from control cGI (% ΔcGI / % −ΔcGI) ([3]; 4 μg/ml): −98% | percent change from control cGI (% ΔcGI / % −ΔcGI) ([3]; 16 μg/ml): −98% | percent change from control cGI (% ΔcGI / % −ΔcGI) ([3]; 64 μg/ml): −98% | percent change from control cGI (% ΔcGI / % −ΔcGI) (MAP strain UCF-4; 1 μg/ml): −5% | percent change from control cGI (% ΔcGI / % −ΔcGI) (MAP strain UCF-4; 4 μg/ml): 2% | percent change from control cGI (% ΔcGI / % −ΔcGI) (MAP strain UCF-4; 16 μg/ml): −4% | percent change from control cGI (% ΔcGI / % −ΔcGI) (MAP strain UCF-4; 64 μg/ml): −35% | effect on growth (in words) (MAP strain UCF-4): no dose-dependent inhibition

NC(=O)c1cccnc1 [Nicotinamide, nicotinamide]
percent change from control cGI (% ΔcGI / % −ΔcGI) (M. avium ATCC 25291; 0.1 μg/ml): 23% | percent change from control cGI (% ΔcGI / % −ΔcGI) (M. avium ATCC 25291; 0.4 μg/ml): 105% | percent change from control cGI (% ΔcGI / % −ΔcGI) (M. avium ATCC 25291; 1.6 μg/ml): 157% | percent change from control cGI (% ΔcGI / % −ΔcGI) (M. avium ATCC 25291; 6.4 μg/ml): 144% | effect on growth (in words) (M. avium ATCC 25291): caused enhancement of growth | percent change from control cGI (% ΔcGI / % −ΔcGI) (M. avium 101; 0.1 μg/ml): 6% | percent change from control cGI (% ΔcGI / % −ΔcGI) (M. avium 101; 0.4 μg/ml): −21% | percent change from control cGI (% ΔcGI / % −ΔcGI) (M. avium 101; 1.6 μg/ml): 7% | percent change from control cGI (% ΔcGI / % −ΔcGI) (M. avium 101; 6.4 μg/ml): 58% | effect on growth (in words) (M. avium 101): caused enhancement of growth | percent change from control cGI (% ΔcGI / % −ΔcGI) (MAP ATCC 19698; 0.1 μg/ml): −6% | percent change from control cGI (% ΔcGI / % −ΔcGI) (MAP ATCC 19698; 0.4 μg/ml): −2% | percent change from control cGI (% ΔcGI / % −ΔcGI) (MAP ATCC 19698; 1.6 μg/ml): −8% | percent change from control cGI (% ΔcGI / % −ΔcGI) (MAP ATCC 19698; 6.4 μg/ml): −7% | effect on growth (in words) (MAP ATCC 19698): no effect | percent change from control cGI (% ΔcGI / % −ΔcGI) ([1]; 0.1 μg/ml, second value printed in Table 4): 32% | percent change from control cGI (% ΔcGI / % −ΔcGI) ([1]; 0.4 μg/ml, second value printed in Table 4): 98% | percent change from control cGI (% ΔcGI / % −ΔcGI) [1, 4]: 110% | percent change from control cGI (% ΔcGI / % −ΔcGI) ([1]; 1.6 μg/ml, second value printed in Table 4): 156% | percent change from control cGI (% ΔcGI / % −ΔcGI) [1, 6]: 115% | percent change from control cGI (% ΔcGI / % −ΔcGI) ([1]; 6.4 μg/ml, second value printed in Table 4): 156% | percent change from control cGI (% ΔcGI / % −ΔcGI) [1, 8]: 125% | percent change from control cGI (% ΔcGI / % −ΔcGI) [1, 10]: 106% | effect on growth (in words) [1]: enhanced | percent increase from control cGI (%+ΔcGI) ([1]; for 1, 4, 16 and 64 μg/ml, first experiment): ≥ 100% | effect on growth (in words) ([2]; at the doses tested): no effect | percent change from control cGI (% ΔcGI / % −ΔcGI) (MAP 303; 0.1 μg/ml): −5% | percent change from control cGI (% ΔcGI / % −ΔcGI) (MAP 303; 0.4 μg/ml): −28% | percent change from control cGI (% ΔcGI / % −ΔcGI) (MAP 303; 1.6 μg/ml): 11% | percent change from control cGI (% ΔcGI / % −ΔcGI) (MAP 303; 6.4 μg/ml): 3% | effect on growth (in words) (MAP 303): no effect | effect on growth (in words) [3]: no effect | percent change from control cGI (% ΔcGI / % −ΔcGI) (MAP strain UCF-4; 0.1 μg/ml): 20% | percent change from control cGI (% ΔcGI / % −ΔcGI) (MAP strain UCF-4; 0.4 μg/ml): 52% | percent change from control cGI (% ΔcGI / % −ΔcGI) (MAP strain UCF-4; 1.6 μg/ml): 73% | percent change from control cGI (% ΔcGI / % −ΔcGI) (MAP strain UCF-4; 6.4 μg/ml): 79% | effect on growth (in words) (MAP strain UCF-4): enhanced

O=C(O)c1cccnc1 [Nicotinic acid, nicotinic acid]
percent change from control cGI (% ΔcGI / % −ΔcGI) (M. avium ATCC 25291; 1 μg/ml): 98% | percent change from control cGI (% ΔcGI / % −ΔcGI) (M. avium ATCC 25291; 4 μg/ml): 170% | percent change from control cGI (% ΔcGI / % −ΔcGI) (M. avium ATCC 25291; 16 μg/ml): 167% | percent change from control cGI (% ΔcGI / % −ΔcGI) (M. avium ATCC 25291; 64 μg/ml): 175% | effect on growth (in words) (M. avium ATCC 25291): enhanced growth | percent change from control cGI (% ΔcGI / % −ΔcGI) (M. avium 101; 1 μg/ml): 41% | percent change from control cGI (% ΔcGI / % −ΔcGI) (M. avium 101; 4 μg/ml): 47% | percent change from control cGI (% ΔcGI / % −ΔcGI) (M. avium 101; 16 μg/ml): 40% | percent change from control cGI (% ΔcGI / % −ΔcGI) (M. avium 101; 64 μg/ml): 56% | effect on growth (in words) (M. avium 101): enhanced growth | percent change from control cGI (% ΔcGI / % −ΔcGI) (MAP ATCC 19698; 1 μg/ml): −17% | percent change from control cGI (% ΔcGI / % −ΔcGI) (MAP ATCC 19698; 4 μg/ml): −4% | percent change from control cGI (% ΔcGI / % −ΔcGI) (MAP ATCC 19698; 16 μg/ml): 12% | percent change from control cGI (% ΔcGI / % −ΔcGI) (MAP ATCC 19698; 64 μg/ml): 30% | effect on growth (in words) (MAP ATCC 19698): far less nicotinic acid induced enhancement | percent change from control cGI (% ΔcGI / % −ΔcGI) [1, 4]: 46% | percent change from control cGI (% ΔcGI / % −ΔcGI) [1, 5]: 71% | percent change from control cGI (% ΔcGI / % −ΔcGI) [1, 6]: 133% | percent change from control cGI (% ΔcGI / % −ΔcGI) [1, 7]: 181% | percent change from control cGI (% ΔcGI / % −ΔcGI) [1, 8]: 195% | percent change from control cGI (% ΔcGI / % −ΔcGI) [1, 9]: 198% | percent change from control cGI (% ΔcGI / % −ΔcGI) [1, 10]: 197% | percent change from control cGI (% ΔcGI / % −ΔcGI) [1, 11]: 225% | percent change from control cGI (% ΔcGI / % −ΔcGI) (MAP 303; 1 μg/ml): −4% | percent change from control cGI (% ΔcGI / % −ΔcGI) (MAP 303; 4 μg/ml): 2% | percent change from control cGI (% ΔcGI / % −ΔcGI) (MAP 303; 16 μg/ml): −4% | percent change from control cGI (% ΔcGI / % −ΔcGI) (MAP 303; 64 μg/ml): 22% | effect on growth (in words) (MAP 303): far less nicotinic acid induced enhancement | percent change from control cGI (% ΔcGI / % −ΔcGI) (MAP strain UCF-4; 1 μg/ml): 48% | percent change from control cGI (% ΔcGI / % −ΔcGI) (MAP strain UCF-4; 4 μg/ml): 63% | percent change from control cGI (% ΔcGI / % −ΔcGI) (MAP strain UCF-4; 16 μg/ml): 101% | percent change from control cGI (% ΔcGI / % −ΔcGI) (MAP strain UCF-4; 64 μg/ml): 92% | percent change from control cGI (% ΔcGI / % −ΔcGI) (MAP strain UCF-4; 64 μg/ml, listed as nicotinic acid): 92%

O=C(O)c1ccccc1O [salicylic acid, reference compound]
percent change from control cGI (% ΔcGI / % −ΔcGI) (M. avium ATCC 25291; 64 μg/ml): 104% | percent change from control cGI (% ΔcGI / % −ΔcGI) ([2]; 64 μg/ml): 95% | percent change from control cGI (% ΔcGI / % −ΔcGI) (MAP 303; 64 μg/ml): 66%
